Earlier results as cited in patent US20040072764A1, “Composition, in particular cosmetic, containing 7-hydroxy dhea and/or 7-keto dhea and at least an isoflavonoid” (priority 2000, published 2004).

Columns and labels:
[1] = tested on: human keratinocytes; details: cited from WO 98/40074
[2] = tested on: skin; details: on rats; cited from WO 00/28996
[3] = tested on: fibroblasts; details: cited from WO 98/40074
[4] = cited from WO 98/40074

SMILES: C[C@]12CC[C@H](O)CC1=C[C@@H](O)[C@@H]1[C@@H]2CC[C@]2(C)C(=O)CC[C@@H]12 [7α-hydroxy-DHEA]
- viability of the human keratinocytes [1]: increase
- collagen content of the skin [2]: increased
- elastin content of the skin [2]: increased
- thickness of the dermis [2]: increased
- proliferation of the fibroblasts [3]: increase
- anti-free radical effects [4]: had anti-free radical effects
